Reference: US7943619B2, “Isoxazolo-pyridazine derivatives” (priority 2007, dated 2011)
Counter-ions that a name gives are not always drawn.

Target: human GABA A receptor α5β3γ2 (α5 subunit) (Homo sapiens, UniProt P18507+P31644)
Assay: biochemical
Format: binding
Details: competition for [3H]flumazenil binding, HEK293 cells transiently expressing human receptors; means of two determinations; read-out: hKi
Protocol: The affinity of compounds at GABA A receptor subtypes was measured by competition for [3H]flumazenil (85 Ci/mmol; Roche) binding to HEK293 cells expressing rat (stably transfected) or human (transiently transfected) receptors of composition α1β3γ2, α2β3γ2, α3β3γ2 and α5β3γ2.
Cell pellets were suspended in Krebs-tris buffer (4.8 mM KCl, 1.2 mM CaCl2, 1.2 mM MgCl2, 120 mM NaCl, 15 mM Tris; pH 7.5; binding assay buffer), homogenized by polytron for ca. 20 sec on ice and centrifuged for 60 min at 4° C. (50000 g; Sorvall, rotor: SM24=20000 rpm). The cell pellets were resuspended in Krebs-tris buffer and homogenized by polytron for ca. 15 sec on ice. Protein was measured (Bradford method, Bio-Rad) and aliquots of 1 mL were prepared and stored at −80° C.
Assays were incubated to equilibrium for 1 hour at 4° C. and harvested onto GF/C uni-filters (Packard) by filtration using a Packard harvester and washing with ice-cold wash buffer (50 mM Tris; pH 7.5). After drying, filter-retained radioactivity was detected by liquid scintillation counting. Ki values were calculated using Excel-Fit (Microsoft) and are the means of two determinations.

Chain of human GABA A receptor α5β3γ2 (α5 subunit) (P31644 32-462): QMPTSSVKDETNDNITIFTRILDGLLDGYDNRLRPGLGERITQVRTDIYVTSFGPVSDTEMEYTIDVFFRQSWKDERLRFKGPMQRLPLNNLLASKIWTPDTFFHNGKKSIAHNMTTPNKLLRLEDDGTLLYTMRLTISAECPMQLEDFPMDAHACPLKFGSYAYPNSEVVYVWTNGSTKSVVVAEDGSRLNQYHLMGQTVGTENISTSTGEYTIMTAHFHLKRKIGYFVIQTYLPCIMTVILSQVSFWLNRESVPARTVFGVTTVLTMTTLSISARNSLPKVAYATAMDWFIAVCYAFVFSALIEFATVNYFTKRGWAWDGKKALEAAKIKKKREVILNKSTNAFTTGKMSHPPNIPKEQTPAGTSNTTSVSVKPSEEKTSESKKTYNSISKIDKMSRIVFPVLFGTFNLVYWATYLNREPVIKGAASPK
Chain of human GABA A receptor α5β3γ2 (α5 subunit) (P28472 26-473 partner): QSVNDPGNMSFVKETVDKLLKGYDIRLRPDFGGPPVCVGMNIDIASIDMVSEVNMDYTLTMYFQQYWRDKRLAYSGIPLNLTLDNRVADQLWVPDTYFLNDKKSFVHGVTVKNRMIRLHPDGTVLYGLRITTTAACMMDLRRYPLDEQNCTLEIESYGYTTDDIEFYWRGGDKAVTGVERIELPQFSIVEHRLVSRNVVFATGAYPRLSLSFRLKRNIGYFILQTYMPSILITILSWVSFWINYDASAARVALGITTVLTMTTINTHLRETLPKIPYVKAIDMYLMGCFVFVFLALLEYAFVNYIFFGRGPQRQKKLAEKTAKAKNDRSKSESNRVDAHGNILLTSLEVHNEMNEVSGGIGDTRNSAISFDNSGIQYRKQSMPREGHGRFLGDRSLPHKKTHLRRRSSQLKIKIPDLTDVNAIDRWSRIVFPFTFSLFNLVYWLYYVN
Chain of human GABA A receptor α5β3γ2 (α5 subunit) (P18507 40-475): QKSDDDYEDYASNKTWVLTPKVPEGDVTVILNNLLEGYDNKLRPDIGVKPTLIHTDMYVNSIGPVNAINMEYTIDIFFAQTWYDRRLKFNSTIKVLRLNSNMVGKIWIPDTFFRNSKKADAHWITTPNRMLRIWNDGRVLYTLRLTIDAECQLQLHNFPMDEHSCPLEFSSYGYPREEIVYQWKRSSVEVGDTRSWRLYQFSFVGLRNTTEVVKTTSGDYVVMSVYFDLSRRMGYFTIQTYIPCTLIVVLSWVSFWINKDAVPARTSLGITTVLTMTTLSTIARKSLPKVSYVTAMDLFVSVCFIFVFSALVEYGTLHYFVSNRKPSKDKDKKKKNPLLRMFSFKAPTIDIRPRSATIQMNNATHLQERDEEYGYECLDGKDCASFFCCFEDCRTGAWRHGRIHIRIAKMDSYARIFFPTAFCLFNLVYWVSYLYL

| SMILES | Ki [nM] |
| --- | --- |
| Cc1onc(-c2ccccc2)c1COc1ccc(Cl)nn1 [Example 1, 3-Chloro-6-(5-methyl-3-phenyl-isoxazol-4-ylmethoxy)-pyridazine] | 9.6 |
| Cc1onc(-c2ccccc2)c1COc1ccc(Br)nn1 [Example 2, 3-Bromo-6-(5-methyl-3-phenyl-isoxazol-4-ylmethoxy)-pyridazine] | 7.6 |
| Cc1ccc(OCc2c(-c3ccccc3)noc2C)nn1 [Example 4, 3-Methyl-6-(5-methyl-3-phenyl-isoxazol-4-ylmethoxy)-pyridazine] | 6.2 |
| CCOC(=O)c1ccc(OCc2c(-c3ccccc3)noc2C)nn1 [Example 5, 6-(5-Methyl-3-phenyl-isoxazol-4-ylmethoxy)-pyridazine-3-carboxylic acid ethyl ester] | 5.5 |
| COCCNC(=O)c1ccc(OCc2c(-c3ccccc3)noc2C)nn1 [Example 6, 6-(5-Methyl-3-phenyl-isoxazol-4-ylmethoxy)-pyridazine-3-carboxylic acid (2-methoxy-ethyl)-amide] | 5.4 |
| Cc1onc(-c2ccccc2)c1COc1ccc(C(=O)NC(C)C)nn1 [Example 7, 6-(5-Methyl-3-phenyl-isoxazol-4-ylmethoxy)-pyridazine-3-carboxylic acid isopropylamide] | 5.9 |
| Cc1onc(-c2ccccc2)c1COc1ccc(C(=O)NC2CC2)nn1 [Example 8, 6-(5-Methyl-3-phenyl-isoxazol-4-ylmethoxy)-pyridazine-3-carboxylic acid cyclopropylamide] | 3.5 |
| Cc1onc(-c2ccccc2)c1COc1ccc(C(=O)NC2CCOCC2)nn1 [Example 9, 6-(5-Methyl-3-phenyl-isoxazol-4-ylmethoxy)-pyridazine-3-carboxylic acid (tetrahydro-pyran-4-yl)-amide] | 4.8 |
| Cc1onc(-c2ccccc2)c1COc1ccc(C(=O)NCCO)nn1 [Example 12, 6-(5-Methyl-3-phenyl-isoxazol-4-ylmethoxy)-pyridazine-3-carboxylic acid (2-hydroxy-ethyl)-amide] | 3.4 |
| Cc1onc(-c2ccccc2)c1COc1ccc(C(=O)NC(C)(C)CO)nn1 [Example 13, 6-(5-Methyl-3-phenyl-isoxazol-4-ylmethoxy)-pyridazine-3-carboxylic acid (2-hydroxy-1,1-dimethyl-ethyl)-amide] | 7.7 |
| COc1ccc(OCc2c(-c3ccccc3)noc2C)nn1 [Example 14, 3-Methoxy-6-(5-methyl-3-phenyl-isoxazol-4-ylmethoxy)-pyridazine] | 12.3 |
| Cc1onc(-c2ccccc2)c1COc1ccc(N)nn1 [Example 15, 6-(5-Methyl-3-phenyl-isoxazol-4-ylmethoxy)-pyridazin-3-ylamine] | 4.1 |
| CC(=O)Nc1ccc(OCc2c(-c3ccccc3)noc2C)nn1 [Example 17, N-[6-(5-Methyl-3-phenyl-isoxazol-4-ylmethoxy)-pyridazin-3-yl]-acetamide] | 3.9 |
| Cc1onc(-c2ccccc2)c1COc1ccc(NC(=O)C(C)C)nn1 [Example 20, N-[6-(5-Methyl-3-phenyl-isoxazol-4-ylmethoxy)-pyridazin-3-yl]-isobutyramide] | 7.9 |
| Cc1onc(-c2ccccc2)c1COc1ccc(NC(=O)C2CC2)nn1 [Example 21, Cyclopropanecarboxylic acid [6-(5-methyl-3-phenyl-isoxazol-4-ylmethoxy)-pyridazin-3-yl]-amide] | 5.3 |
| Cc1onc(-c2ccccc2)c1COc1ccc(NC(=O)C2CCC2)nn1 [Example 22, Cyclobutanecarboxylic acid [6-(5-methyl-3-phenyl-isoxazol-4-ylmethoxy)-pyridazin-3-yl]-amide] | 10.1 |

| SMILES | Ki [nM] |
| --- | --- |
| Cc1onc(-c2ccccc2)c1COc1ccc(NC(=O)C2CCOCC2)nn1 [Example 25, Tetrahydro-pyran-4-carboxylic acid [6-(5-methyl-3-phenyl-isoxazol-4-ylmethoxy)-pyridazin-3-yl]-amide] | 8.7 |
| Cc1onc(-c2ccccc2)c1COc1ccc(N2CCCC2=O)nn1 [Example 27, 1-[6-(5-Methyl-3-phenyl-isoxazol-4-ylmethoxy)-pyridazin-3-yl]-pyrrolidin-2-one] | 4 |
| COC(=O)C(=O)Nc1ccc(OCc2c(-c3ccccc3)noc2C)nn1 [Example 28, N-[6-(5-Methyl-3-phenyl-isoxazol-4-ylmethoxy)-pyridazin-3-yl]-oxalamic acid methyl ester] | 5.1 |
| Cc1onc(-c2ccccc2)c1COc1ccc(NC(=O)c2ccccc2)nn1 [Example 30, N-[6-(5-Methyl-3-phenyl-isoxazol-4-ylmethoxy)-pyridazin-3-yl]-benzamide] | 13.7 |
| Cc1onc(-c2ccccc2)c1COc1ccc(NC(=O)c2ccco2)nn1 [Example 32, Furan-2-carboxylic acid [6-(5-methyl-3-phenyl-isoxazol-4-ylmethoxy)-pyridazin-3-yl]-amide] | 6.9 |
| Cc1onc(-c2ccccc2)c1COc1ccc(NC(=O)c2ccno2)nn1 [Example 33, Isoxazole-5-carboxylic acid [6-(5-methyl-3-phenyl-isoxazol-4-ylmethoxy)-pyridazin-3-yl]-amide] | 5.4 |
| CCOC(=O)Nc1ccc(OCc2c(-c3ccccc3)noc2C)nn1 [Example 34, [6-(5-Methyl-3-phenyl-isoxazol-4-ylmethoxy)-pyridazin-3-yl]-carbamic acid ethyl ester] | 8.6 |
| Cc1onc(-c2ccccc2)c1COc1ccc(N2CCOCC2)nn1 [Example 36, 4-[6-(5-Methyl-3-phenyl-isoxazol-4-ylmethoxy)-pyridazin-3-yl]-morpholine] | 9.4 |
| CNc1ccc(OCc2c(-c3ccccc3)noc2C)nn1 [Example 37, Methyl-[6-(5-methyl-3-phenyl-isoxazol-4-ylmethoxy)-pyridazin-3-yl]-amine HCl] | 6.3 |
| Cc1onc(-c2ccccc2)c1COc1ccc(N(C)C)nn1 [Example 38, Dimethyl-[6-(5-methyl-3-phenyl-isoxazol-4-ylmethoxy)-pyridazin-3-yl]-amine] | 8.4 |
| Cc1cc(C)n(-c2ccc(OCc3c(-c4ccccc4)noc3C)nn2)n1 [Example 39, 3-(3,5-Dimethyl-pyrazol-1-yl)-6-(5-methyl-3-phenyl-isoxazol-4-ylmethoxy)-pyridazine] | 5.1 |
| CCOC(=O)c1cc(C)c(OCc2c(-c3ccccc3)noc2C)nn1 [Example 40, 5-Methyl-6-(5-methyl-3-phenyl-isoxazol-4-ylmethoxy)-pyridazine-3-carboxylic acid ethyl ester] | 2.2 |
| Cc1cc(OCc2c(-c3ccccc3)noc2C)nnc1Cl [Example 41, 3-Chloro-4-methyl-6-(5-methyl-3-phenyl-isoxazol-4-ylmethoxy)-pyridazine] | 2.3 |
| CCOC(=O)c1nnc(OCc2c(-c3ccccc3)noc2C)cc1C [Example 42, 4-Methyl-6-(5-methyl-3-phenyl-isoxazol-4-ylmethoxy)-pyridazine-3-carboxylic acid ethyl ester] | 1.9 |
| Cc1cc(OCc2c(-c3ccccc3)noc2C)nnc1C(=O)NC1CCOCC1 [Example 44, 4-Methyl-6-(5-methyl-3-phenyl-isoxazol-4-ylmethoxy)-pyridazine-3-carboxylic acid (tetrahydro-pyran-4-yl)-amide] | 3.4 |
| Cc1cc(OCc2c(-c3ccccc3)noc2C)nnc1C(=O)NC1CC1 [Example 45, 4-Methyl-6-(5-methyl-3-phenyl-isoxazol-4-ylmethoxy)-pyridazine-3-carboxylic acid cyclopropylamide] | 1.4 |
